This note sets out measurements from PMC9112895, “Selective Inhibition of Plasmodium falciparum ATPase 6 by Artemisinins and Identification of New Classes of Inhibitors after Expression in Yeast” (Antimicrobial Agents and Chemotherapy, 2022).

What all share (type): cell-based
For one assay, the target named is T1, S769N PfATP6 (Plasmodium falciparum, UniProt Q08853, S769N).
T1 construct: expressed in transfected cells; host or cells: Saccharomyces cerevisiae K667-derived strain
T1 sequence (Q08853 1-1228 S769N): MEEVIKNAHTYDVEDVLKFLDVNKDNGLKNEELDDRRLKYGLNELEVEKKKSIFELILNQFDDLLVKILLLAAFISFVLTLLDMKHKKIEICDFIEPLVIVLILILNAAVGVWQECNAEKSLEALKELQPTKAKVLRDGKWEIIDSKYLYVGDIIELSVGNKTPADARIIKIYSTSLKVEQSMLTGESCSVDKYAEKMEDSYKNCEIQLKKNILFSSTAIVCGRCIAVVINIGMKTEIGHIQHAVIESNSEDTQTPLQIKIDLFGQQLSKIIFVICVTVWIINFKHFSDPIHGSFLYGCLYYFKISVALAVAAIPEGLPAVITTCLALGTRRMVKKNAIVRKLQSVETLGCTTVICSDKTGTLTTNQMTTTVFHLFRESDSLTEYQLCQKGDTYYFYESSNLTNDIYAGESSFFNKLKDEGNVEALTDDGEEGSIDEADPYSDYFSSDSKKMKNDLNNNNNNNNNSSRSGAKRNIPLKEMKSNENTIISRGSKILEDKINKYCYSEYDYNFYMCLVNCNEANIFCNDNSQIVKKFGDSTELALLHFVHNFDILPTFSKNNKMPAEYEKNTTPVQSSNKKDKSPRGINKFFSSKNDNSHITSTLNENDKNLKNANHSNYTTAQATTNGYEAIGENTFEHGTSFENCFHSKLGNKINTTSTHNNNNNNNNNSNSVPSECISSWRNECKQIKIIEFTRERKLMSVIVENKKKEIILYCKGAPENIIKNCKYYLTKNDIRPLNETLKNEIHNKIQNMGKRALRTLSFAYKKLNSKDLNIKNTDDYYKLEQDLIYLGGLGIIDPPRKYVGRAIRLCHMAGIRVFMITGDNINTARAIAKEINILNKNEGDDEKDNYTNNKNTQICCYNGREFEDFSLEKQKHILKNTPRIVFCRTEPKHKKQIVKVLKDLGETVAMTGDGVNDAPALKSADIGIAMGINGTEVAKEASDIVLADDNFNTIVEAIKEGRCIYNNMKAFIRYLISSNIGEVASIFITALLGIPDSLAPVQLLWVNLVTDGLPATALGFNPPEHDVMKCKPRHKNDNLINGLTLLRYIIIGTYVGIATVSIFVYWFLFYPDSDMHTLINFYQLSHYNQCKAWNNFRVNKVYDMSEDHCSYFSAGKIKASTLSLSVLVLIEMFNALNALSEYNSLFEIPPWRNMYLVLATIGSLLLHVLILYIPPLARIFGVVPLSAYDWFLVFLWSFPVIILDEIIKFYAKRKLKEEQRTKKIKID
As to the kind of experiment: Yeast whole-cell assay, PfATP6 S769N mutant. The following applies: read-out: IC50 (mean ± SD). The protocol: Yeast transformations were performed using the method described by Gietz and Schiestl ([48]), and transformants were selected by an uracil auxotrophic marker. Transformations were confirmed by colony PCR. Both K667 and K667Δpdr5::HIS were transformed with the following plasmids: pUGpd plasmid as a vector-only control (derived from pRS316 [49]); br434 plasmid (derived from pRS316 [50]) containing the SERCA1a coding region from rabbit skeletal fast-twitch muscle (pbr434-SERCA1a); and pUGpd containing the yeast-optimized coding region of PfATP6 from Plasmodium falciparum (pUGpd-PfATP6). Site-directed mutagenesis was performed on the SERCA1a coding region to produce the mutation E255L in the protein. Mutations were also introduced into the PfATP6 coding region to produce mutations L263E, A623E, and S769N and the double mutation A623E/S769N ([13]).
The screening assay used here was developed from the protocol used by Pulcini et al. ([13]). […] The optimal calcium concentration was periodically monitored and, if necessary, adjusted using a calcium concentration range of 10 to 30 mM. […] The yeast growth was estimated from the absorbance at 620 nm in a Tecan plate reader. […] The data collected were analyzed using GraphPad Prism v9.0 (GraphPad software, San Diego, CA, U.S.A).

Assay [1] has as its target T2, PfATP6 (Plasmodium falciparum, UniProt Q08853). As to the kind of experiment: cell-based. More on the design: pUGpd containing the yeast-optimized coding region of PfATP6 from Plasmodium falciparum; expressed in transfected cells; host or cells: Saccharomyces cerevisiae K667 and K667Δpdr5::HIS. Here is the method:
(§1) The screening assay used here was developed from the protocol used by Pulcini et al. ([13]). A single colony of the yeast strain to be screened was picked and grown in 5 mL of selective medium until stationary phase was reached. The culture was diluted 100-fold in ampicillin-supplemented yeast extract-peptone-dextrose (YPD) medium to an OD at 620 nm (OD620) equivalent to that of lag phase. YPD medium was supplemented with an appropriate concentration of calcium, depending on the transformed strain. […] The optimal calcium concentration was periodically monitored and, if necessary, adjusted using a calcium concentration range of 10 to 30 mM. A final volume of 200 μL of the yeast culture was added to each well of a 96-well plate, with 5 technical replicates included per inhibitor. All inhibitors were dissolved in dimethyl sulfoxide (DMSO) unless otherwise stated. […] The 96-well plates were incubated at 30°C for 42 h. The yeast growth was estimated from the absorbance at 620 nm in a Tecan plate reader. Growth was normalized with the no-drug control to present data as percent growth. The data collected were analyzed using GraphPad Prism v9.0 (GraphPad software, San Diego, CA, U.S.A).

The target of assay [2] is T2, PfATP6. As to the kind of experiment: Yeast whole-cell growth inhibition (functional rescue) assay, K667[PfATP6]. More on the design: pUGpd containing the yeast-optimized coding region of PfATP6 from Plasmodium falciparum; expressed in transfected cells; host or cells: Saccharomyces cerevisiae K667 and K667Δpdr5::HIS. The protocol: as §1

T2 sequence (Q08853 whole entry): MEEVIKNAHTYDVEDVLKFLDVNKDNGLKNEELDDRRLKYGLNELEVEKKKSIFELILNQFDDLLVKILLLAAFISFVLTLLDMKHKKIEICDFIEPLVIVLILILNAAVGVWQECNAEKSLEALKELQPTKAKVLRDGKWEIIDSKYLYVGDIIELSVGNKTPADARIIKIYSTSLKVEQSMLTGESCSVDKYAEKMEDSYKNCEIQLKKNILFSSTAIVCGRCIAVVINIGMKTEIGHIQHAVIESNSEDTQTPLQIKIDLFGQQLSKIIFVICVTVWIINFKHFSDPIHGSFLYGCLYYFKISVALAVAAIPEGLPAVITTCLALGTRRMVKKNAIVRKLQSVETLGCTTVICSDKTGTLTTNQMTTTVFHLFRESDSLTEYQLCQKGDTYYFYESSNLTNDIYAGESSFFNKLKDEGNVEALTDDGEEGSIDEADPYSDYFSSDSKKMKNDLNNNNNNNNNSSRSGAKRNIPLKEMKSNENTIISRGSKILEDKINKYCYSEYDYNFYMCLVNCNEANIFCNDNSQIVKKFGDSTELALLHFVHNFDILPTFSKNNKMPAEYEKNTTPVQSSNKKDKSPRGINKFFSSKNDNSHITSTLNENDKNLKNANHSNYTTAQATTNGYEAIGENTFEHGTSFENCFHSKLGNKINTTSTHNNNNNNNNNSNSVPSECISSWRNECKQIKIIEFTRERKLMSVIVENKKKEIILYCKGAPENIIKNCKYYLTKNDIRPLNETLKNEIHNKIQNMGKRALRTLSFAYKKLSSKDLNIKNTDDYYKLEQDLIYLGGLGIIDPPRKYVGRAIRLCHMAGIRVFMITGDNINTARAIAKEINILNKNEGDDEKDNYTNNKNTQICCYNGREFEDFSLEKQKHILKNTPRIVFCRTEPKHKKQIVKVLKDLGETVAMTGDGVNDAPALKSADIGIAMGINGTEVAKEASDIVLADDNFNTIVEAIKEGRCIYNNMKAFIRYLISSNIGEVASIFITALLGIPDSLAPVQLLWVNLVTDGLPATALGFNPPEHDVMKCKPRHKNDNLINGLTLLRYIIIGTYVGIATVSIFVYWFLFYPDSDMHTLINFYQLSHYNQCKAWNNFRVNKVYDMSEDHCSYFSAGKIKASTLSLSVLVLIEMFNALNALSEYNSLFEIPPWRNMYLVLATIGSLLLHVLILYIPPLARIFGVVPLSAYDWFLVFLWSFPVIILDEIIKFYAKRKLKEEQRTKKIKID

For `CC(=O)C1=C(O)[C@@H]2[C@H]3c4c[nH]c5cccc(c45)C[C@H]3C(C)(C)N2C1=O` [CPA, cyclopiazonic acid], the IC50 on S769N PfATP6 came to 6.49 µM; against PfATP6 [2] it was 11.6 µM. For the same compound, at PfATP6 [1] (fitness cost assays, drug pressure), the “approximate IC10” value was approximately 5 µM. In addition, at PfATP6 [1] (read-out: approximate yeast IC80), the IC80 is approximately 5 µM.
